Results on one molecule are retold here after patent US10821092B2, “Viscous topical ocular formulations” (Encompass Development, Inc., priority 2014, dated 2020).

One experiment has as its system rabbit eye. In words: Blink response to surface stimulation in rabbits: onset and duration of anesthesia. The following applies: as shown in the working examples. It is filed as in vivo, New Zealand White Rabbits. As for the experimental part: This rabbit study was performed in order to evaluate various formulations. General guidelines for these studies are attached here as Attachment 1. This guideline defines the screening of six (6) formulations using two (2) different viscosity enhancing agents. The two agents selected were Carboxymethylcellulose (CMC) and Sodium Hyluronate (HA). The specifics of these formulations are described in Attachment 2.
A statistical analysis of the experimental results for both onset of action and the duration of anesthesia is provided below. The means were compiled and statistically compared to the controls in each individual formulation. The significance or non-significance is noted as (S=Significant P value <0.001, NS=Not Significant P Value >0.05). The duration results are summarized here in Table 1.
Six different formulations were tested and the onset and duration of action was evaluated.
The commercially available Tetracaine hydrochloride 0.5% Ophthalmic Solution was used as the control.
New Zealand White Rabbits were obtained from Harlan Sprague Dawley. They were housed in the animal facility at Mercer
Dosing was performed with the experimental formulation in one eye by dropping the formulation into the rabbit eye with the aid of a dropper and the standard marketed product was administered in the contra lateral eye as a control. Multiple experiments were run with the same group of rabbits. […]

For experiment [1] the following is noted: cited from earlier work.

Take `CCCCNc1ccc(C(=O)OCCN(C)C)cc1` [tetracaine]: the “duration of anesthesia after administration to the eye” value in the experiment with rabbit eye is given as “up to 55 minutes”. Also, in experiment [1] (background statement on tetracaine ophthalmic solution), the onset of anesthesia is no more than 30 s. In addition, the “duration of anesthetic properties” value in experiment [1] (background statement, cataract surgery) is 15 to 20 min.
